According to patent US20080051466A1, “Isoalpha acid based protein kinase modulation cancer treatment” (Metaproteomics, LLC, priority 2006, published 2008):

Columns and labels:
Assay in all cases: KinaseProfiler Assay
p70S6K = p70S6K (Homo sapiens, UniProt P23443); assay type: biochemical; details: read-out: p70S6K, % of Control
PKA(b) = PKA(b) (Bos taurus, UniProt P00517); assay type: biochemical, human; details: read-out: PKA(b), % of Control
MAPKAP-K3 = MAPKAP-K3 (Homo sapiens, UniProt Q16644); assay type: biochemical; details: read-out: MAPKAP-K3, % of Control
MSSK1 = MSSK1 (Homo sapiens, UniProt Q9UPE1); assay type: biochemical; details: read-out: MSSK1, % of Control
Sequence of MSSK1 (Q9UPE1 whole entry): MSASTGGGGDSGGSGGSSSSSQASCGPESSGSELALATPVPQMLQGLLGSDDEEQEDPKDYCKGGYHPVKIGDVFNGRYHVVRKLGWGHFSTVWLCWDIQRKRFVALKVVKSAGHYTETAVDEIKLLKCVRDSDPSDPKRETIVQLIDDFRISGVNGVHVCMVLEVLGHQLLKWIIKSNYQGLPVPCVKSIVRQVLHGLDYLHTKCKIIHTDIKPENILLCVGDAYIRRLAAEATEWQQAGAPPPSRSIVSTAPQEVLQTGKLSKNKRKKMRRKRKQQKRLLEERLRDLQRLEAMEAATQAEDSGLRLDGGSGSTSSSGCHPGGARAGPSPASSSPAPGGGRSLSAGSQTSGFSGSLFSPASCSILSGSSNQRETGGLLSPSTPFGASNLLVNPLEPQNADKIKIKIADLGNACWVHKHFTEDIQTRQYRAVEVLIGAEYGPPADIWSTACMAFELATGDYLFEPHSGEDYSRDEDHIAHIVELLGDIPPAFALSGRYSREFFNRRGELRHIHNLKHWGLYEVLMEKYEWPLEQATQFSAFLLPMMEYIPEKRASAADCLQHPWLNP

Fgr = Fgr (Homo sapiens, UniProt P09769); assay type: biochemical; details: read-out: Fgr, % of Control
PRAK = PRAK (Homo sapiens, UniProt Q8IW41); assay type: biochemical; details: read-out: PRAK, % of Control
Sequence of PRAK (Q8IW41 whole entry): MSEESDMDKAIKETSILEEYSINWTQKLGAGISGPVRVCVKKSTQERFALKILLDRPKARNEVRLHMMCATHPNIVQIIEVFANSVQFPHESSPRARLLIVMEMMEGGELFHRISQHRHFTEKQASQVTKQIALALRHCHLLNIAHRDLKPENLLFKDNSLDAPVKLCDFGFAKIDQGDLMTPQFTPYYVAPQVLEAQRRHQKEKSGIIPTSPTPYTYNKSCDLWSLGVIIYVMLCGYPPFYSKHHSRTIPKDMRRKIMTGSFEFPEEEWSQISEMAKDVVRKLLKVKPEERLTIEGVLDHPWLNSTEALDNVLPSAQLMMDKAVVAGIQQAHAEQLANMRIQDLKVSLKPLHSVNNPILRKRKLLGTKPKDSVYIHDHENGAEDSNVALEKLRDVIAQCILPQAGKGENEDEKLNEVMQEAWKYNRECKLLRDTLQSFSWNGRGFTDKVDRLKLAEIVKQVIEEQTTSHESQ

PrKX = PrKX (Homo sapiens, UniProt P51817); assay type: biochemical; details: read-out: PrKX, % of Control
Sequence of PrKX (P51817 whole entry): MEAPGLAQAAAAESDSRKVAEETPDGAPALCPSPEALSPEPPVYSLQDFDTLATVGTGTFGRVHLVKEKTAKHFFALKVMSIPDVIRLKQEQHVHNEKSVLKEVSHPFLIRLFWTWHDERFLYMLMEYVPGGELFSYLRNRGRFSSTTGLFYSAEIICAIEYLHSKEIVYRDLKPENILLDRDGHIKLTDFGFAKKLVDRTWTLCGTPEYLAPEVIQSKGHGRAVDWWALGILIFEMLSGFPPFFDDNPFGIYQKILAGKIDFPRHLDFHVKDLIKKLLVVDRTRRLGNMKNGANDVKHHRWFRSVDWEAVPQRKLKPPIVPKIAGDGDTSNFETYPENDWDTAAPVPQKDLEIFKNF

Fyn = Fyn (Homo sapiens, UniProt P06241); assay type: biochemical; details: read-out: Fyn, % of Control
Sequence of Fyn (P06241 whole entry): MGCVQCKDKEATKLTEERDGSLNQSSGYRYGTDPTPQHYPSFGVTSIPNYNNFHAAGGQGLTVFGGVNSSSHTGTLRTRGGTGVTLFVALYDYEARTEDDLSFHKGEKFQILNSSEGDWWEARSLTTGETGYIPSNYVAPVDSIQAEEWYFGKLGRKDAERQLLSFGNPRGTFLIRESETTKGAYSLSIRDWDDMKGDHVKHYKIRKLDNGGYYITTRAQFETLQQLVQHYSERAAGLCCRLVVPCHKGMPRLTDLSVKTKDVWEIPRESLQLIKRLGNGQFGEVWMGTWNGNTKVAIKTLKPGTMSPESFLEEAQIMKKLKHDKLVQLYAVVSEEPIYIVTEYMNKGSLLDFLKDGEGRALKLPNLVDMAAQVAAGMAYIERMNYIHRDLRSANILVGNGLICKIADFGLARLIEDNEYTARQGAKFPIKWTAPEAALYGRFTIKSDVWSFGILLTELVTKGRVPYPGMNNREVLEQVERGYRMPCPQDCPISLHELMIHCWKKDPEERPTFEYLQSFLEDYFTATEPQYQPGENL

BTK = BTK (Homo sapiens, UniProt Q06187); assay type: biochemical; details: read-out: BTK, % of Control
Sequence of BTK (Q06187 whole entry): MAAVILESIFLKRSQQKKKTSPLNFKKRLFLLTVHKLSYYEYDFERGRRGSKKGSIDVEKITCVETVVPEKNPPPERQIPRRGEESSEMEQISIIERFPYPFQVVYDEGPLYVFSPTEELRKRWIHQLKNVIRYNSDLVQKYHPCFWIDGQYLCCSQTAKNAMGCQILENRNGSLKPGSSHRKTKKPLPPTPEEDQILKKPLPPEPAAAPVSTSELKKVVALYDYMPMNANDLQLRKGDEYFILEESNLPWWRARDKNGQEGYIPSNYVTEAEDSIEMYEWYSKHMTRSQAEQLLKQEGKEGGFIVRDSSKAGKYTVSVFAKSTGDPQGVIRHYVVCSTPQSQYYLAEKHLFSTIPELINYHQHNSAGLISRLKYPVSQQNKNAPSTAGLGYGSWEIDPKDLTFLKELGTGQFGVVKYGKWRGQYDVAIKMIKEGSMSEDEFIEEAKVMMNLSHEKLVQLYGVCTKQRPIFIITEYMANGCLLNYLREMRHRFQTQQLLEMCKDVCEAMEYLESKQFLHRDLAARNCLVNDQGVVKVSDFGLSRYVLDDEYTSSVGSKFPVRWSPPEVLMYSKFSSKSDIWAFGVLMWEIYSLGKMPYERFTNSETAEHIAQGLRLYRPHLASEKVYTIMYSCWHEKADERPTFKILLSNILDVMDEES

EphA8 = biological target: T1, EphA8 (Homo sapiens, UniProt P29322); assay type: biochemical; details: read-out: EphA8, % of Control
T1 sequence (P29322 28-1005): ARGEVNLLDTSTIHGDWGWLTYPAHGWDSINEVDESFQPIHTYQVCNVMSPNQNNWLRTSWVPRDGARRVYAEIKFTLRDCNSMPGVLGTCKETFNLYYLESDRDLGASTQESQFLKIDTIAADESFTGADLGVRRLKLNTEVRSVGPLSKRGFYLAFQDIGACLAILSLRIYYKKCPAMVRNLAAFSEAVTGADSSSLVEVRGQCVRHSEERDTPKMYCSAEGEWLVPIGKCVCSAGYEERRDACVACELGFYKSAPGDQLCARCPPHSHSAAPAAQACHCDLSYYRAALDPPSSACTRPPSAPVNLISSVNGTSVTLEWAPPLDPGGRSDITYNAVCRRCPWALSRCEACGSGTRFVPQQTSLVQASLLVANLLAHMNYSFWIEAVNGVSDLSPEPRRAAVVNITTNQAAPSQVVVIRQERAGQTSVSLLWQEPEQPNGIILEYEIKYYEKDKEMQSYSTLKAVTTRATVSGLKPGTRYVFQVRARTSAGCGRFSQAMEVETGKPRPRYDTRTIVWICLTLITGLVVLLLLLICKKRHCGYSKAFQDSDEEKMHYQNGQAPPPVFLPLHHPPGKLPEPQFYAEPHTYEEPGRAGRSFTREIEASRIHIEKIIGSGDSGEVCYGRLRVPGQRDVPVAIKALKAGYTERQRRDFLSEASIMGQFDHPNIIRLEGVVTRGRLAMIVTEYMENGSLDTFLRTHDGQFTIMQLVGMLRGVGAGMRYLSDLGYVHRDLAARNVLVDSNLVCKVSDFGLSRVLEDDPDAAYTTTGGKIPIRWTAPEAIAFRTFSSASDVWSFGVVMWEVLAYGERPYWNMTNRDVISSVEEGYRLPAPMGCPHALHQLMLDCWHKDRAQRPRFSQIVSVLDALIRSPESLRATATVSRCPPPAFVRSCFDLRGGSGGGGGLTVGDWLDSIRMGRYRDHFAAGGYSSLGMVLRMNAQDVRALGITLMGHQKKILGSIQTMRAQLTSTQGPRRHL

ZIPK = ZIPK (Homo sapiens, UniProt O43293); assay type: biochemical; details: read-out: ZIPK, % of Control
Sequence of ZIPK (O43293 whole entry): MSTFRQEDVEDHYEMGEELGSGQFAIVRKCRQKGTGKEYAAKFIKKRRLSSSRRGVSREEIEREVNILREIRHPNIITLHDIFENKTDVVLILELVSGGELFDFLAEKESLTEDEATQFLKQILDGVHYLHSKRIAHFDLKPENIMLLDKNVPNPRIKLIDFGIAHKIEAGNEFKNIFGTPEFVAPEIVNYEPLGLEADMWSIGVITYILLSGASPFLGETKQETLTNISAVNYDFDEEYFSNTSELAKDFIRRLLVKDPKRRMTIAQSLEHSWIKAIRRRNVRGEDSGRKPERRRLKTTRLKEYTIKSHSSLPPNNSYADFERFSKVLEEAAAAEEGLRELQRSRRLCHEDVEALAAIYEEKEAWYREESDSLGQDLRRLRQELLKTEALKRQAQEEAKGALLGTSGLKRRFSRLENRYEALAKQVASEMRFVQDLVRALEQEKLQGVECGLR

Flt4 = Flt4 (Homo sapiens, UniProt P35916); assay type: biochemical; details: read-out: Flt4, % of Control
Sequence of Flt4 (P35916 25-1363): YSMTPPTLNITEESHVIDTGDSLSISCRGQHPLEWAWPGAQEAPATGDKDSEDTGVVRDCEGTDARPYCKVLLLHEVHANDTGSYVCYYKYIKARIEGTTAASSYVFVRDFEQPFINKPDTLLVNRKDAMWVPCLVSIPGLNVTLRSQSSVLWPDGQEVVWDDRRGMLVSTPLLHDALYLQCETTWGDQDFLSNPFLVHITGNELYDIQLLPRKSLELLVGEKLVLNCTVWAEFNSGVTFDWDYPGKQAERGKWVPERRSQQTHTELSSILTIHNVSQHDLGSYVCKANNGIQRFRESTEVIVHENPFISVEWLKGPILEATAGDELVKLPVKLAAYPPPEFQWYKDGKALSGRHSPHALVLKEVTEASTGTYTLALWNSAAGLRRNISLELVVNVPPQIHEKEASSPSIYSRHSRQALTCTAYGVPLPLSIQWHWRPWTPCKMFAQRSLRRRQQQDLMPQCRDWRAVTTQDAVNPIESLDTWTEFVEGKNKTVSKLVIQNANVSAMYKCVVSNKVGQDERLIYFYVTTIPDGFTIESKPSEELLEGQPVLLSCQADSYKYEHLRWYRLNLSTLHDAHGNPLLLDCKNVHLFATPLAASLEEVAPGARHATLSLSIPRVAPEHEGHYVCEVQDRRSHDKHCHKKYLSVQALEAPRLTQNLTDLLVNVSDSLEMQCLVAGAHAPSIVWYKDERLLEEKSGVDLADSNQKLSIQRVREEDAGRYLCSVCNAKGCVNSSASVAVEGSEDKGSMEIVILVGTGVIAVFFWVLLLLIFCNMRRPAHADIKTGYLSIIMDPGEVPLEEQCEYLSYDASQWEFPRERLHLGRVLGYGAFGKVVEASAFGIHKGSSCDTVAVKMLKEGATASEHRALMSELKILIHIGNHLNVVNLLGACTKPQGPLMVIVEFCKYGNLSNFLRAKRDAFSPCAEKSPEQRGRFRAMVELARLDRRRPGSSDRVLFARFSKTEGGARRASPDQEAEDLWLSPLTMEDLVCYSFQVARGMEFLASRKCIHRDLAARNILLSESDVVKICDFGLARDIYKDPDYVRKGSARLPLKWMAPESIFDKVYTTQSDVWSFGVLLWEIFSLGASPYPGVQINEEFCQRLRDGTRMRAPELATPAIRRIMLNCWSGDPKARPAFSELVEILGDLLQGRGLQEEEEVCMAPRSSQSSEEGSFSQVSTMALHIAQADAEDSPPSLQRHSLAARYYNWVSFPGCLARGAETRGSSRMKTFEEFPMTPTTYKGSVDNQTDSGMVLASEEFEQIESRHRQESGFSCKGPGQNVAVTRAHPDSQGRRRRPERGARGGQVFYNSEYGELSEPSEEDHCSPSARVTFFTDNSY

Hck = Hck (Homo sapiens, UniProt P08631); assay type: biochemical; details: read-out: Hck, % of Control

Sequence of p70S6K (P23443 whole entry): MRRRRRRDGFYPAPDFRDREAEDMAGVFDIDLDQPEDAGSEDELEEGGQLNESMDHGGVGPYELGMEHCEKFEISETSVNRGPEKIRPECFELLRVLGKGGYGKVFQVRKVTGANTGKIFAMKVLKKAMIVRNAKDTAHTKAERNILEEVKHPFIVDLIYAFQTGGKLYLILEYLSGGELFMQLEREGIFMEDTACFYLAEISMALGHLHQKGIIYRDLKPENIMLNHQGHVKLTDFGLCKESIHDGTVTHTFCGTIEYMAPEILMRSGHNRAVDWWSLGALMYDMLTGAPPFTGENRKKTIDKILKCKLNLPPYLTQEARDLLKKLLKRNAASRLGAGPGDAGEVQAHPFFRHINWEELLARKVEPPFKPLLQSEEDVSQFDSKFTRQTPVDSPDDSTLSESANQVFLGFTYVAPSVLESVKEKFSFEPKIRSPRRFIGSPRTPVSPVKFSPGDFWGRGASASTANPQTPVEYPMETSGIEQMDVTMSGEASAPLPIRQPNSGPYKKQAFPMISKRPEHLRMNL

remaining activity at 1 µg/mL (p70S6K; 1 ug/ml): 94% | remaining activity at 5 µg/mL (p70S6K; 5 ug/ml): 48% | remaining activity at 25 µg/mL (p70S6K; 25 ug/ml): 19% | remaining activity at 50 µg/mL (p70S6K; 50 ug/ml): 7% | remaining activity at 1 µg/mL (PKA(b); 1 ug/ml): 137% | remaining activity at 25 µg/mL (PKA(b); 25 ug/ml): 33% | remaining activity at 25 µg/mL (MAPKAP-K3; 25 ug/ml): 17% | remaining activity at 50 µg/mL (MAPKAP-K3; 50 ug/ml): 7% | remaining activity at 1 µg/mL (MSSK1; 1 ug/ml): 47% | remaining activity at 5 µg/mL (MSSK1; 5 ug/ml): 11% | remaining activity at 25 µg/mL (MSSK1; 25 ug/ml): 7% | remaining activity at 50 µg/mL (MSSK1; 50 ug/ml): 5% | remaining activity at 5 µg/mL (Fgr; 5 ug/ml): 36% | remaining activity at 25 µg/mL (Fgr; 25 ug/ml): 10% | remaining activity at 1 µg/mL (PRAK; 1 ug/ml): 101% | remaining activity at 5 µg/mL (PRAK; 5 ug/ml): 53% | remaining activity at 1 µg/mL (PrKX; 1 ug/ml): 92% | remaining activity at 50 µg/mL (PrKX; 50 ug/ml): 3% | remaining activity at 1 µg/mL (Fyn; 1 ug/ml): 104% | remaining activity at 5 µg/mL (Fyn; 5 ug/ml): 66% | remaining activity at 25 µg/mL (Fyn; 25 ug/ml): 42% | remaining activity at 50 µg/mL (Fyn; 50 ug/ml): 18% | remaining activity at 1 µg/mL (BTK; 1 ug/ml): 109% | remaining activity at 5 µg/mL (BTK; 5 ug/ml): 57% | remaining activity at 50 µg/mL (BTK; 50 ug/ml): 20% | remaining activity at 1 µg/mL (EphA8; 1 ug/ml): 103% | remaining activity at 5 µg/mL (EphA8; 5 ug/ml): 92% | remaining activity at 25 µg/mL (EphA8; 25 ug/ml): 29% | remaining activity at 50 µg/mL (EphA8; 50 ug/ml): 19% | remaining activity at 1 µg/mL (ZIPK; 1 ug/ml): 115% | remaining activity at 5 µg/mL (ZIPK; 5 ug/ml): 74% | remaining activity at 25 µg/mL (ZIPK; 25 ug/ml): 20% | remaining activity at 50 µg/mL (ZIPK; 50 ug/ml): 70% | remaining activity at 1 µg/mL (Flt4; 1 ug/ml): 74% | remaining activity at 5 µg/mL (Flt4; 5 ug/ml): 10% | remaining activity at 25 µg/mL (Flt4; 25 ug/ml): 11% | remaining activity at 1 µg/mL (Hck; 1 ug/ml): 85% | remaining activity at 25 µg/mL (Hck; 25 ug/ml): 17%
Structure (SMILES): COc1cc(O)c(CC=C(C)C)c(O)c1C(=O)/C=C/c1ccc(O)cc1 [Xanthohumol, xanthohumol]
